Test results as given in ChEMBL document CHEMBL4699526, “Flavonoids with Inhibitory Effects on NLRP3 Inflammasome Activation from Millettia velutina” (J Nat Prod, 2020).

How the values were obtained:
THP-1 = test: Cytotoxicity against LPS-primed human PMA-differentiated THP-1 cells 2.5 to 5 uM by CytoTox 96 Non-Radioactive assay; type: cell-based; conditions: dose 2.5-5 µM
[1] = In vivo inhibition of NLRP3 inflammasome activation in C57BL/6 mouse assessed as survival rate at 50 mg/kg, ip pretreated for 1 hr followed by LPS-treatment and measured every 12 hrs for 48 hrs relative to control; type: functional; conditions: C57BL/6, ip, time 49 hrs
[2] = In vivo inhibition of NLRP3 inflammasome activation in C57BL/6 mouse assessed as mortality rate at 50 mg/kg, ip pretreated for 1 hr followed by LPS-treatment and measured every 12 hrs for 48 hrs (reference value: 100%); type: functional; conditions: C57BL/6, ip, 61 h

For `COc1c(/C=C/C(=O)c2ccccc2)cc(OC)c2occc12`, the Activity (THP-1) was “Non-Toxic”, the survival at 50 mg/kg [1] was 100% and the mortality at 50 mg/kg [2] was 24%.
